Experimental data: publication PMC5923142, “Selection and Characterization of Rupintrivir-Resistant Norwalk Virus Replicon Cells In Vitro” (Antimicrobial Agents and Chemotherapy, 2018)

System: recombinant MNV I109V mutant
Assay: Antiviral effect against recombinant MNV I109V mutant infection of BV-2 cells (TCID50)
Type: cell-based, murine norovirus
Details: MOIs 0.1 and 1
Experimental: BV-2 cells were infected with recombinant WT MNV or the MNV I109V mutant at an MOI of 0.1 or 1 for 1 h in the CO2 incubator at 37°C. After incubation, the supernatant was removed and the cells were washed twice with PBS, and then complete DMEM containing various concentrations of rupintrivir or 2CMC was added to the cells. After 24 h for incubation, the virus titers of the supernatant were determined by measurement of the TCID50. On the basis of the TCID50, the 90% effective concentration (EC90) values of rupintrivir and 2CMC were calculated using XLfit (version 5.3) software.

Compound: C[C@@]1(O)[C@H](O)[C@@H](CO)O[C@H]1n1ccc(N)nc1=O [2CMC, 2-C-methylcytidine]
- difference in EC90 values between I109V and WT viruses: no significant difference
